For experiment [1], the target named is T1, CAR19-CARBtag (Homo sapiens, UniProt Q96SW2+Q9UKS7, DEL175-229).
T1 construct: signal peptide […]; 16GS linker […]; expressed in transfected cells; host or cells: Jurkat NFAT luciferase (JNL) cells, lentiviral infection at MOI 4
The experiment is described as follows: Western blot of JNL cells expressing CAR19-CARBtag. It counts as cell-based. As to conditions: various doses of Compound I-112 for 24 hours. On the technique in general: In western blotting, separated proteins are transferred to a membrane and probed.

A further experiment addresses T2, CARBtag-MITF-FLAG (Homo sapiens, UniProt O75030+Q9UKS7).
T2 construct: 16GS linker […]; MITF (NM_000248); expressed in transfected cells; host or cells: HEK293T (ATCC CRL-3216), transient, FuGene HD, CMV promoter vector
Description: Western blot of HEK293T cells transiently transfected with CARBtag-MITF-FLAG. It counts as cell-based. As to conditions: 10 μM, 1 μM, 0.1 μM, or 0.01 μM Compound I-112 or lenalidomide.

For another experiment, the target named is IKZF2 (Homo sapiens, UniProt Q96SW2+Q9UKS7). The experiment is described as follows: Degradation of IKZF2. It counts as cell-based.
A further experiment has as its target IKZF1 (Homo sapiens, UniProt Q13422+Q96SW2). Description: Degradation of IKZF1. It counts as cell-based.
A further experiment addresses IKZF3 (Homo sapiens, UniProt Q96SW2+Q9UKT9). Description: Degradation of IKZF3. It counts as cell-based.
For experiment [2], the target named is T1, CAR19-CARBtag. Description: CAR19-CARBtag dose response in Jurkat NFAT luciferase cells, Western blot. It counts as cell-based. As to conditions: 10-0.001 μM, 24 hours; FIG. 38A. The protocol: (§1) Cells were expanded for one week before using. […] All cells were harvested at 24 hours after initial compound treatment for western blotting and flow cytometry analysis.
The gels were run in duplicate, one for actin and the other for either V5 or CD3Z.

Experiment [3] has as its target T1, CAR19-CARBtag. The experiment is described as follows: CAR19-CARBtag dose response in Jurkat NFAT luciferase cells, flow cytometry. It counts as cell-based. The settings on record: 10-0.001 μM, 24 hours; FIG. 38B. The protocol: as §1
After incubation the cells were washed using PBS.
(In general: In flow cytometry, cells or beads pass a laser one at a time.)

Experiment [4] has as its target T1, CAR19-CARBtag. The experiment is described as follows: Jurkat NFAT luciferase (JNL) CAR functional assay, CAR19-CARB-tag cells. It counts as cell-based. As to conditions: 8-point dilution, 10 μM top, 15 hours pre-incubation; FIG. 38C. The protocol: Half of the 8-point Compound I-112 treated cells received 20 μl of K562 and the other half received 20 μl of Nalm6 cells.

The target in a further experiment is T3, CARBtag-16GS-MITF-FLAG (Homo sapiens, UniProt O75030+Q9UKS7).
T3 construct: MITF (NM_000248); expressed in transfected cells; host or cells: HEK293T (ATCC CRL-3216), transient, FuGene HD, CMV promoter vector
The experiment is described as follows: CARBtag-16GS-MITF-FLAG degradation in HEK293T cells, Western blot. It counts as cell-based. The settings on record: 4-point log dilution from 10 μM, 24 hours, FIG. 39.

A further experiment deals with CD19-16GS-HilD-V5. The experiment is described as follows: CD19-16GS-HilD-V5 expression in HEK293T cells, Western blot. It counts as cell-based. As to conditions: different doses, 24 hours, data not shown. The protocol: Cellular gene expression and treatment: HEK293T (ATCC CRL-3216) cells were cultured in DMEM with 10% FBS and pen/strep at 37° C. and 5% CO2. The cells were transfected with either CARBtag-16GS-MITF-FLAG or CARBtag-16GS-MITF-FLAG and CD19-16GS-HilD-V5 using FuGene HD (Promega E2311) using a 3:1 FuGene HD to DNA ratio. […] Cells were treated with the indicated compound for 24 hours and then were prepared for western blot.
The gels were run in triplicate (one for each antibody).

Experiment [5] deals with T4, IKZF3 136-180 and 236-249-tagged NanoLuciferase (Homo sapiens, UniProt Q96SW2+Q9UKT9, DEL181-196/S197T).
T4 construct: expressed in transfected cells; host or cells: HEK293T
It counts as cell-based. The settings on record: 1-hour pre-treatment (10 μM MG132; 128 or 12.8 ng/mL cyclohexamide).
Description: DMSO was included as a vehicle control. Luminescence was measured by reading each 384-well plate on a ViewLux® with 1-second and 5-second exposures. The data was imported into Spotfire® and visualizations were made by doing a NC3 normalization according to the following formula: 100*([Luminescence]/[DMSO]).

Experiment [6] has as its system IKZF3 degron-tagged melanogenesis associated transcription factor (MITF). The experiment is described as follows: Western blot of IKZF3-tagged MITF in HEK293T cells. It counts as cell-based, human. As to conditions: MG132 treatment. The procedure: IKZF3-based degradation tags were evaluated for their ability to facilitate the degradation of melanogenesis associated transcription factor (MITF) or avian myelocytomatosis viral oncogene (MYC) homolog by Western blot. In addition to the IKZF3-based degradation tags, MITF and MYC were also fused to a FLAG tag to facilitate their detection using an anti-FLAG antibody.
DMSO was used as vehicle control.

The subject of experiment [7] is HilD-tagged CAR19 or FurON-CAR19 (NFAT luciferase reporter). The experiment is described as follows: JNL NFAT luciferase reporter assay, lenalidomide dose-response at three treatment time points. It counts as cell-based, human.
Description: This study used the JNL cell line described above, which is a Jurkat cell line modified with an NFAT luciferase reporter. Co-culturing of CAR19-expressing JNL cells and CD19-expressing B cells activates the NFAT signaling, leading to luciferase expression.
For target cell co-culture, K562 cells or CD19-expressing K562 cells were added to each well containing JNL cells and cultured on a GNF Systems Ultra-high throughput screening system in a 37° C. and 5% CO2 incubator.
In experiment [8] the test system is IKZF3 136-180 and 236-249-tagged NanoLuciferase. The settings on record: 10 μM MG132 one-hour pre-treatment, then 100 μM lenalidomide.
Description: Samples were pelleted, lysed, run on a protein gel, transferred to a membrane, probed with antibody and developed with film.
For experiment [9], the target named is IKZF3 136-180 and 236-249-tagged CD19 (Homo sapiens, UniProt P15391). The settings on record: 10 μM MG132 pre-treatment, 10 μM lenalidomide.
Description: In particular, flow cytometry analysis was conducted to determine whether there was a difference between the total amount of target protein degraded and the total amount of target protein expressed on the cell surface.
CD19 was stained with anti-human CD19 antibody (BD Pharmingen 555413).
The next experiment addresses T5, HilD-Tau (wild type) (Homo sapiens, UniProt P10636+Q96SW2).
T5 construct: expressed in transfected cells; host or cells: HEK293T
Description: Quantification of HilD-Tau degradation by Western analysis in HEK293T cells. It counts as cell-based. The settings on record: 1 μM MLN4924 co-treatment including 1 hour pretreatment.

The structures appear in SMILES notation. “Also recorded” adds a separate entry of the source. Where a SMILES comes first, the peptide text is derived from it. The star is where a group is joined. Cbz = O=C(OCc1ccccc1)*

Description for CARBtag-16GS-MITF-FLAG: Lysates were centrifuged, supernatant transferred to new tubes and protein quantities read by Lowry Assay (BioRad 5000111). Each sample was normalized to 30 μg total protein in a 20 μl volume with 4× sample buffer (Thermo Scientific NP0007) and 10× reducing agent (Thermo Scientific NP0009). […] The gels were run in triplicate (one for each antibody).
Description for HilD-Tau (wild type): One day prior to transfection, HEK293T cells were plated at a density of 150,000 per well in a 24 well plate. […] Cells were incubated overnight. […] Plates were incubated on ice with occasional shaking for 15 minutes. Lysate was then cleared by centrifugation at 15000 g, 4° C. for 15 minutes. LDS buffer and reducing agent were added to the cleared lysate and then samples were heated at 95° C. for 8 minutes. Samples were run on a 10% bis-tris gel at 150V for 70 minutes. Blots were transferred using the Biorad turboblot (Mixed molecular weight setting). Blots were probed with DAKO Tau (total tau) (Dako #A0024), actin (Cell signaling technologies #3700S), and AT8 (phospho-Tau) (Thermo Fisher #MN1020).

As to `O=C1CCC(N2Cc3cc(C4CCN(Cc5ccc(F)cc5)CC4)ccc3C2=O)C(=O)N1` (centres unmarked) [Compound I-112, 3-(5-(1-(4-fluorobenzyl)piperidin-4-yl)-1-oxoisoindolin-2-yl)piperidine-2,6-dione], at CAR19-CARBtag [1], the “degradation of CAR19-CARBtag” value is listed as “dose-responsive degradation of CAR19-CARBtag”. Further, the “degradation of CARB-tagged MITF” value at CARBtag-MITF-FLAG is reported as “I-112-specific degradation of the CARB-tagged MITF”. For the same molecule, the “degradation of IKZF2” value on IKZF2 is “specifically degrade IKZF2”. Besides, the “degradation of IKZF1” value at IKZF1 is given as “not IKZF1 or IKZF3”. The “degradation of IKZF3” value on IKZF3 is “not IKZF1 or IKZF3”. In addition, the “protein levels of CAR19-CARBtag (Western blot)” value at CAR19-CARBtag [2] is reported as “dose-dependent decrease”. The “CAR surface expression in JNL CAR19-CARBtag cells” value on CAR19-CARBtag [3] is on record as “reduced CAR surface expression”. The “response of CAR19-CARBtag cells to CD19+ Nalm6 cells (NFAT luciferase)” value at CAR19-CARBtag [4] is recorded as “reduced in a dose-dependent manner”. At CARBtag-16GS-MITF-FLAG, the “degradation of CARB-tagged MITF (Western blot)” value was “effectively degraded”. Besides, the “expression of CD19-HilDtag (Western blot)” value in the experiment with CD19-16GS-HilD-V5 is “remained constant”.

On to `CC(C)C[C@@H](C=O)NC(=O)[C@H](CC(C)C)NC(=O)[C@H](CC(C)C)NC(=O)OCc1ccccc1` [MG132] (Cbz-Leu-Leu-Leu-aldehyde), for which the “effect of pre-treatment on lenalidomide-dependent degradation of NanoLuciferase” value in [5] is “blocked”. Besides, the “effect of MG132 on lenalidomide-dependent degradation of tagged MITF” value in experiment [6] is reported as “blocked”. Also, the “rescue by MG132 of lenalidomide-induced reduction of reporter signal” value in [7] (HilD-tagged CAR19 or lysine-free-HilD-tagged CAR19 (constructs 769, 770)) is “partially rescued”. Besides, the “rescue by MG132 of lenalidomide-induced reduction of reporter activation” value in experiment [7] (construct 767, MG132 5 hours prior to target cells) was “mostly rescued”. In addition, in [8], the “effect of MG132 on lenalidomide-dependent degradation” value is “not observed; also recorded: blocked”. The “effect of MG132 on lenalidomide-induced reduction of surface CD19” value in experiment [9] is reported as “partially blocked”.

Consider `NS(=O)(=O)OC[C@@H]1C[C@@H](n2ccc3c(N[C@H]4CCc5ccccc54)ncnc32)C[C@@H]1O` [MLN4924], for which, at HilD-Tau (wild type), the “effect of MLN4924 on lenalidomide-induced degradation of Tau” value was “sensitive; also recorded: prevented degradation of Tau”.

For the origin of these results see patent publication US20220251152A1, “COMPOSITIONS AND METHODS FOR SELECTIVE PROTEIN DEGRADATION” (Novartis AG, priority 2019, published 2022).
